# In the supplement of paper PMC11208160:
# Experiment: recombinant UMI read abundance after kanamycin selection (control-corrected) (log10(CPM+1)); higher = more efficient recombination; extreme values may be limits of the assay; sequences stand for … in AGTGCAGAGAAAATCGGCCAGTTTTCTCTGCCTGCAGTCCGCATGCCGTGGGACCCCTTGGGTTCTAACCTGTTGCCTAGATTTATGCAGCGGACTGCCTTTCTCCCAAAGTGATAAACCGG…AGGTTGGTTTCACT; site = the 11-nt donor
# How it was run: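 In a pooled Escherichia coli screen for the IS621 bridge recombinase, donor and donor-binding-loop pairs were each placed with a 12-nt UMI on a plasmid bearing a promoterless kanamycin gene. This library was co-electroporated with a target plasmid encoding a fixed target and T7-inducible recombinase, and cells were plated either on IPTG (0.07 mM) plus kanamycin or without selection, in two replicates each. Recombinant UMIs were PCR-amplified across the donor–target junction and sequenced, and counts were converted to CPM, averaged over replicates, scaled by control-derived factors and reported as log10(CPM+1).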
row,Sequence,recombinant UMI read abundance (log10)
1,TCCTCATCATGGACCGGTTTTCCCGGTAATCCGTATTTGGA (site TCCTCATCTTC),0.00521
2,GTTTGCCCATGGACCGGTTTTCCCGGTAATCCGTATTTGAT (site GATTGCCCTAT),0.00963
3,CAATCCCCATGGACCGGTTTTCCCGGTAATCCGTATTTGCT (site CAATCCCCTAG),0.977
4,CTTCGCTCATGGACCGGTTTTCCCGGTAATCCGTATTTGTA (site CTTCCCTCTTA),0.0134
5,CATATTCCATGGACCGGTTTTCCCGGTAATCCGTATTTGCT (site CATATTCCTAG),0
6,AGGAAGACATGGACCGGTTTTCCCGGTAATCCGTATTTGCA (site AGGCAGACTTC),0.0244
7,AAACATCCATGGACCGGTTTTCCCGGTAATCCGTATTTGAC (site ATACATCCTGT),0
8,GTGCATGCATGGACCGGTTTTCCCGGTAATCCGTATTTGCT (site GTGCATGCTAG),2.86
9,CCCTAGCCATGGACCGGTTTTCCCGGTAATCCGTATTTGTC (site CCCTAGCCTGG),0
10,GGAATCTCATGGACCGGTTTTCCCGGTAATCCGTATTTGAA (site GGAATCTCTTT),2.55
11,GACAATCCATGGACCGGTTTTCCCGGTAATCCGTATTTGAA (site GACAATCCTTT),0.601
12,AGGAAGACATGGACCGGTTTTCCCGGTAATCCGTATTTGCA (site AGGGAGACTTG),1.32
13,TACAATACATGGACCGGTTTTCCCGGTAATCCGTATTTGCA (site TATAATACTTG),0
14,CTCCCTACATGGACCGGTTTTCCCGGTAATCCGTATTTGAG (site CTCCCTGCTCT),0.0117
15,CGATCGACATGGACCGGTTTTCCCGGTAATCCGTATTTGTT (site CGAGCGACTAA),0.0076
16,GTATGGACATGGACCGGTTTTCCCGGTAATCCGTATTTGTA (site GTATGCACTTA),0.0152
17,TGCGACACATGGACCGGTTTTCCCGGTAATCCGTATTTGGT (site TGCGACACTAC),0.00309
18,CTCCATACATGGACCGGTTTTCCCGGTAATCCGTATTTGAG (site CTCCCTACTCT),0.0258
19,CGGAGTACATGGACCGGTTTTCCCGGTAATCCGTATTTGTT (site CGGAGTACTAA),2.14
20,CGGGCAGCATGGACCGGTTTTCCCGGTAATCCGTATTTGTC (site CGGGCAGCTGA),1.93
21,TAGCCTACATGGACCGGTTTTCCCGGTAATCCGTATTTGGT (site TAGCCTACTAC),0.00532
22,GCGACGCCATGGACCGGTTTTCCCGGTAATCCGTATTTGGG (site GCGAAGCCTCC),0.0164
23,CGCCTAGCATGGACCGGTTTTCCCGGTAATCCGTATTTGTT (site CGCCTAGCTAA),0
24,AGGAAGACATGGACCGGTTTTCCCGGTAATCCGTATTTGCA (site AGGAAGGCTTG),1.84
25,GACTAACCATGGACCGGTTTTCCCGGTAATCCGTATTTGGT (site GACGAACCTAC),0

row,Sequence,recombinant UMI read abundance (log10)
1,ATGAAGGCATGGACCGGTTTTCCCGGTAATCCGTATTTGGC (site ATGTAGGCTGC),2.08
2,CCTACGCCATGGACCGGTTTTCCCGGTAATCCGTATTTGAA (site CCTACGCCTTT),0.0231
3,CTCCACACATGGACCGGTTTTCCCGGTAATCCGTATTTGTA (site CTCCACACTTA),1.33
4,GGGATGACATGGACCGGTTTTCCCGGTAATCCGTATTTGCT (site GGGATGACTAG),2.32
5,CGCGGCTCATGGACCGGTTTTCCCGGTAATCCGTATTTGGC (site CGCGGCTCTGC),2.33
6,CAAGTCACATGGACCGGTTTTCCCGGTAATCCGTATTTGGC (site CAAGTCACTGC),2.99
7,AGACATCCATGGACCGGTTTTCCCGGTAATCCGTATTTGAC (site ACACATCCTGT),0.237
8,CGCAATCCATGGACCGGTTTTCCCGGTAATCCGTATTTGAA (site TGCAATCCTTT),0.00288
9,CCCGGTCCATGGACCGGTTTTCCCGGTAATCCGTATTTGCA (site CCCGGTTCTTG),0
10,AAACTTGCATGGACCGGTTTTCCCGGTAATCCGTATTTGGC (site AAACTTGCTGC),0
11,CGGAATACATGGACCGGTTTTCCCGGTAATCCGTATTTGTC (site CGGAATCCTAA),0.0129
12,ATATAGGCATGGACCGGTTTTCCCGGTAATCCGTATTTGGC (site ATTTAGGCTGC),0.00901
13,AGTAACACATGGACCGGTTTTCCCGGTAATCCGTATTTGCA (site AGTAACACTTG),2.13
14,CCTTATACATGGACCGGTTTTCCCGGTAATCCGTATTTGGG (site CCTTATACTCC),0.016
15,GGCAAAACATGGACCGGTTTTCCCGGTAATCCGTATTTGTT (site GGCAAAACTAA),0.56
16,ACTGTATCATGGACCGGTTTTCCCGGTAATCCGTATTTGCC (site ACAGTATCTTG),0
17,CCCGGTCCATGGACCGGTTTTCCCGGTAATCCGTATTTGCA (site CCAGGTCCTTG),0
18,AGGAAGACATGGACCGGTTTTCCCGGTAATCCGTATTTGCA (site AGCAAGGCTTG),0.00883
19,CGTTAGGCATGGACCGGTTTTCCCGGTAATCCGTATTTGAG (site CGTTAGGCTCT),1.23
20,TTGGAATCATGGACCGGTTTTCCCGGTAATCCGTATTTGCG (site TAGGAATCTCG),1.81
21,TCATCCTCATGGACCGGTTTTCCCGGTAATCCGTATTTGAA (site TCATCCTCTTT),1.05
22,TCCCGACCATGGACCGGTTTTCCCGGTAATCCGTATTTGAG (site TCCCGACCTCT),0.00764
23,ATATGCACATGGACCGGTTTTCCCGGTAATCCGTATTTGTA (site ATATGCACTTA),2.49
24,CAGTCGACATGGACCGGTTTTCCCGGTAATCCGTATTTGGG (site CAGGCGACTCC),0
25,TCTACACCATGGACCGGTTTTCCCGGTAATCCGTATTTGAC (site TATACACCTGT),0.00982

row,Sequence,recombinant UMI read abundance (log10)
1,AGGAAGACATGGACCGGTTTTCCCGGTAATCCGTATTTGCA (site CGGAAGACTTT),0.95
2,AAGCACACATGGACCGGTTTTCCCGGTAATCCGTATTTGGG (site AAGCACCCTCC),0.0138
3,TAGAATCCATGGACCGGTTTTCCCGGTAATCCGTATTTGCA (site TAGAATGCTTG),0
4,AATAATGCATGGACCGGTTTTCCCGGTAATCCGTATTTGGA (site AATTATGCTTC),0.707
5,CCCTATTCATGGACCGGTTTTCCCGGTAATCCGTATTTGGA (site CCCTATTCTTC),0.0708
6,ATAAGGCCATGGACCGGTTTTCCCGGTAATCCGTATTTGAC (site ATAACGCCTGT),0.0185
7,CCGTTGACATGGACCGGTTTTCCCGGTAATCCGTATTTGCT (site CCGTTTACTAG),0
8,TCAGCTGCATGGACCGGTTTTCCCGGTAATCCGTATTTGTG (site TAAGCTGCTCA),0.0147
9,CAGACATCATGGACCGGTTTTCCCGGTAATCCGTATTTGAG (site CAGACATCTCT),3.06
10,GTAGGTACATGGACCGGTTTTCCCGGTAATCCGTATTTGAC (site GTAGTTACTGT),1.2
11,AGGAAGACATGGACCGGTTTTCCCGGTAATCCGTATTTGCA (site AGGAAGACTAG),0.102
12,AAACTTACATGGACCGGTTTTCCCGGTAATCCGTATTTGCA (site AAACTTACTTG),1.52
13,TACAGGCCATGGACCGGTTTTCCCGGTAATCCGTATTTGCT (site TACAGGCCTAG),0.00356
14,CTGGATACATGGACCGGTTTTCCCGGTAATCCGTATTTGCA (site CTGGAGACTTG),0.473
15,CGGGTACCATGGACCGGTTTTCCCGGTAATCCGTATTTGAT (site CGGGTACCTAT),0.00441
16,GTGCAGGCATGGACCGGTTTTCCCGGTAATCCGTATTTGGT (site GTGCAGGCTAC),0.659
17,TGCCCGGCATGGACCGGTTTTCCCGGTAATCCGTATTTGGC (site TGTCCGGCTGC),0
18,CAGTCGACATGGACCGGTTTTCCCGGTAATCCGTATTTGGG (site CAGTCGTCTCC),0.151
19,GGCCACCCATGGACCGGTTTTCCCGGTAATCCGTATTTGTT (site GGCCACCCTGA),0
20,TCATTGCCATGGACCGGTTTTCCCGGTAATCCGTATTTGAG (site TCATTGCCTCT),0.00408
21,CGCATATCATGGACCGGTTTTCCCGGTAATCCGTATTTGTC (site CTCATATCTGA),0.436
22,GACTGGCCATGGACCGGTTTTCCCGGTAATCCGTATTTGCA (site GAATGGCCTTG),0
23,TGGAATCCATGGACCGGTTTTCCCGGTAATCCGTATTTGTT (site GGGAATCCTAA),0
24,AACCGTCCATGGACCGGTTTTCCCGGTAATCCGTATTTGGT (site AACCGTCCTAA),0.0129
25,AAATTCCCATGGACCGGTTTTCCCGGTAATCCGTATTTGCT (site AAATTCCCTAG),1.37
